Data from ChEMBL document CHEMBL3526130, “An evaluation of using rat-derived single-dose neuropharmacokinetic parameters to project accurately large animal unbound brain drug concentrations” (Drug Metab Dispos, 2012).

Tests used:
[1] = AUC(0 to 4 hrs) in Beagle dog plasma at 1 mg/kg, sc by LC-MS/MS analysis; type: ADME, organism-based, Canis lupus familiaris; set-up: time < 4 hr, dose 1 mg/kg, route subcutaneous
[2] = AUC(0 to 2 hrs) in cynomolgus monkey plasma at 1 mg/kg, sc by LC-MS/MS analysis; type: ADME, organism-based, Macaca fascicularis; set-up: time < 2 hr, dose 1 mg/kg, route subcutaneous
[3] = AUC(0 to 2 hrs) in cynomolgus monkey cerebrospinal fluid at 1 mg/kg, sc by LC-MS/MS analysis; type: ADME, organism-based, Macaca fascicularis; set-up: time < 2 hr, dose 1 mg/kg, route subcutaneous
[4] = AUC(0 to 2 hrs) in Sprague-Dawley rat plasma at 3.2 mg/kg, sc by LC-MS/MS analysis; type: ADME, organism-based; set-up: time < 2 hr, dose 3.2 mg/kg, route subcutaneous
[5] = AUC(0 to infinity) in Sprague-Dawley rat plasma at 3.2 mg/kg, sc by LC-MS/MS analysis; type: ADME, organism-based; set-up: time infinity, dose 3.2 mg/kg, route subcutaneous
[6] = AUC(0 to 2 hrs) in Sprague-Dawley rat cerebrospinal fluid at 3.2 mg/kg, sc by LC-MS/MS analysis; type: ADME, organism-based; set-up: time < 2 hr, dose 3.2 mg/kg, route subcutaneous
[7] = Ratio of drug level in brain to plasma in Sprague-Dawley rat at 3.2 mg/kg, sc by LC-MS/MS analysis; type: ADME, organism-based; set-up: dose 3.2 mg/kg, route subcutaneous; conditions: read-out: BPR
Nucleic Acid [8] = experiment: Ratio of drug level in cerebrospinal fluid to unbound plasma concentration in Sprague-Dawley rat at 3.2 mg/kg, sc by LC-MS/MS analysis; type: ADME, organism-based; set-up: dose 3.2 mg/kg, route subcutaneous; conditions: in vivo
[9] = Ratio of unbound brain concentration to drug level in cerebrospinal fluid in Sprague-Dawley rat at 3.2 mg/kg, sc by LC-MS/MS analysis; type: ADME, organism-based; set-up: dose 3.2 mg/kg, route subcutaneous; conditions: in vivo
[10] = Ratio of unbound drug level in brain to plasma in Sprague-Dawley rat at 3.2 mg/kg, sc by LC-MS/MS analysis; type: ADME, organism-based; set-up: dose 3.2 mg/kg, route subcutaneous
[11] = Unbound fraction in Beagle dog plasma at 1 mg/kg, sc by LC-MS/MS analysis; type: ADME, organism-based, Canis lupus familiaris; set-up: dose 1 mg/kg, route subcutaneous
[12] = Unbound fraction in Beagle dog brain at 1 mg/kg, sc by LC-MS/MS analysis; type: ADME, organism-based, Canis lupus familiaris; set-up: dose 1 mg/kg, route subcutaneous
[13] = Unbound fraction in cynomolgus monkey plasma at 1 mg/kg, sc by LC-MS/MS analysis; type: ADME, organism-based, Macaca fascicularis; set-up: dose 1 mg/kg, route subcutaneous
[14] = Unbound fraction in cynomolgus monkey brain at 1 mg/kg, sc by LC-MS/MS analysis; type: ADME, organism-based, Macaca fascicularis; set-up: dose 1 mg/kg, route subcutaneous
[15] = AUC(0 to infinity) in Sprague-Dawley rat cerebrospinal fluid at 3.2 mg/kg, sc by LC-MS/MS analysis; type: ADME, organism-based; set-up: time infinity, dose 3.2 mg/kg, route subcutaneous
[16] = AUC(0 to 2 hrs) in Sprague-Dawley rat brain at 3.2 mg/kg, sc by LC-MS/MS analysis; type: ADME, organism-based; set-up: time < 2 hr, dose 3.2 mg/kg, route subcutaneous
[17] = AUC(0 to infinity) in Sprague-Dawley rat brain at 3.2 mg/kg, sc by LC-MS/MS analysis; type: ADME, organism-based; set-up: time infinity, dose 3.2 mg/kg, route subcutaneous
[18] = Ratio of unbound brain concentration to drug level in cerebrospinal fluid in cynomolgus monkey at 1 mg/kg, sc by LC-MS/MS analysis; type: ADME, organism-based, Macaca fascicularis; set-up: dose 1 mg/kg, route subcutaneous; conditions: in vivo
[19] = Ratio of unbound drug level in brain to plasma in Beagle dog at 1 mg/kg, sc by LC-MS/MS analysis; type: ADME, organism-based, Canis lupus familiaris; set-up: dose 1 mg/kg, route subcutaneous; conditions: brain and plasma
[20] = Ratio of unbound drug level in brain to plasma in cynomolgus monkey at 1 mg/kg, sc by LC-MS/MS analysis; type: ADME, organism-based, Macaca fascicularis; set-up: dose 1 mg/kg, route subcutaneous; conditions: brain and plasma
[21] = AUC(0 to 4 hrs) in Beagle dog brain at 1 mg/kg, sc by LC-MS/MS analysis; type: ADME, organism-based, Canis lupus familiaris; set-up: time < 4 hr, dose 1 mg/kg, route subcutaneous
[22] = AUC(0 to 2 hrs) in cynomolgus monkey brain at 1 mg/kg, sc by LC-MS/MS analysis; type: ADME, organism-based, Macaca fascicularis; set-up: time < 2 hr, dose 1 mg/kg, route subcutaneous
[23] = Ratio of drug level in brain to plasma in Beagle dog at 1 mg/kg, sc by LC-MS/MS analysis; type: ADME, organism-based, Canis lupus familiaris; set-up: dose 1 mg/kg, route subcutaneous; conditions: brain and plasma, read-out: BPR
[24] = Ratio of drug level in brain to plasma in cynomolgus monkey at 1 mg/kg, sc by LC-MS/MS analysis; type: ADME, organism-based, Macaca fascicularis; set-up: dose 1 mg/kg, route subcutaneous; conditions: brain and plasma, read-out: BPR
Nucleic Acid [25] = experiment: Ratio of drug level in cerebrospinal fluid to unbound plasma concentration in cynomolgus monkey at 1 mg/kg, sc by LC-MS/MS analysis; type: ADME, organism-based, Macaca fascicularis; set-up: dose 1 mg/kg, route subcutaneous; conditions: in vivo
[26] = AUC(0 to 2 hrs) in Sprague-Dawley rat plasma at 2 mg/kg, sc by LC-MS/MS analysis; type: ADME, organism-based; set-up: time < 2 hr, dose 2 mg/kg, route subcutaneous
[27] = AUC(0 to infinity) in Sprague-Dawley rat plasma at 2 mg/kg, sc by LC-MS/MS analysis; type: ADME, organism-based; set-up: time infinity, dose 2 mg/kg, route subcutaneous
[28] = AUC(0 to 2 hrs) in Sprague-Dawley rat cerebrospinal fluid at 2 mg/kg, sc by LC-MS/MS analysis; type: ADME, organism-based; set-up: time < 2 hr, dose 2 mg/kg, route subcutaneous
[29] = AUC(0 to infinity) in Sprague-Dawley rat cerebrospinal fluid at 2 mg/kg, sc by LC-MS/MS analysis; type: ADME, organism-based; set-up: time infinity, dose 2 mg/kg, route subcutaneous
[30] = Ratio of drug level in brain to plasma in Sprague-Dawley rat at 2 mg/kg, sc by LC-MS/MS analysis; type: ADME, organism-based; set-up: dose 2 mg/kg, route subcutaneous; conditions: read-out: BPR
Nucleic Acid [31] = experiment: Ratio of drug level in cerebrospinal fluid to unbound plasma concentration in Sprague-Dawley rat at 2 mg/kg, sc by LC-MS/MS analysis; type: ADME, organism-based; set-up: dose 2 mg/kg, route subcutaneous; conditions: in vivo
[32] = Ratio of unbound brain concentration to drug level in cerebrospinal fluid in Sprague-Dawley rat at 2 mg/kg, sc by LC-MS/MS analysis; type: ADME, organism-based; set-up: dose 2 mg/kg, route subcutaneous; conditions: in vivo
[33] = Ratio of unbound drug level in brain to plasma in Sprague-Dawley rat at 2 mg/kg, sc by LC-MS/MS analysis; type: ADME, organism-based; set-up: dose 2 mg/kg, route subcutaneous
[34] = AUC(0 to 2 hrs) in Sprague-Dawley rat brain at 2 mg/kg, sc by LC-MS/MS analysis; type: ADME, organism-based; set-up: time < 2 hr, dose 2 mg/kg, route subcutaneous
[35] = AUC(0 to infinity) in Sprague-Dawley rat brain at 2 mg/kg, sc by LC-MS/MS analysis; type: ADME, organism-based; set-up: dose 2 mg/kg, route subcutaneous, time infinity

CNCc1cc(F)c(Cl)cc1Oc1cccc(OC)c1C
AUC(0-t) at 4 h [1]: 134 ng·h/mL | AUC(0-t) at 2 h [2]: 150 ng·h/mL | AUC(0-t) at 2 h [3]: 2.18 ng·h/mL | AUC(0-t) at 2 h [4]: 302 ng·h/mL | AUC(0-inf) [5]: 479 ng·h/mL | AUC(0-t) at 2 h [6]: 6.42 ng·h/mL | Kp [7]: 11.1 | Ratio (Nucleic Acid [8]): 1.47 | Ratio [9]: 2.65 | Kp uu [10]: 3.9 | fraction unbound [11]: 0.0162 | fraction unbound [12]: 0.00443 | fraction unbound [13]: 0.0279 | fraction unbound [14]: 0.0038 | AUC(0-inf) [15]: 8.12 ng·h/mL | AUC(0-t) at 2 h [16]: 3360 ng·h/mL | AUC(0-inf) [17]: 5570 ng·h/mL | Ratio [18]: 3.92 | Kp uu [19]: 4.61 | Kp uu [20]: 2.04 | AUC(0-t) at 4 h [21]: 2260 ng·h/mL | AUC(0-t) at 2 h [22]: 2250 ng·h/mL | Kp [23]: 16.9 | Kp [24]: 15 | Ratio (Nucleic Acid [25]): 0.52

Clc1ccc2c(c1)N=C(N1CCNCC1)c1ccccc1N2 [N-DESMETHYLCLOZAPINE]
AUC(0-t) at 2 h [26]: 346 ng·h/mL | AUC(0-inf) [27]: 570 ng·h/mL | AUC(0-t) at 2 h [28]: 4.8 ng·h/mL | AUC(0-inf) [29]: 8.91 ng·h/mL | Kp [30]: 0.64 | Ratio (Nucleic Acid [31]): 0.22 | Ratio [32]: 0.26 | Kp uu [33]: 0.06 | AUC(0-t) at 2 h [34]: 221 ng·h/mL | AUC(0-inf) [35]: 699 ng·h/mL
